IC50 data for eleven molecules are collected here from patent US20250361230A1, “LATS Inhibitors and Uses Thereof” (The USA, as Represented by the Secretary, Dept. of Heath …, priority 2022, published 2025).

What all share (type): biochemical
In experiment [1] the target is T1, LATS1 (Homo sapiens, UniProt O95835).
T1 sequence (O95835 1-1130): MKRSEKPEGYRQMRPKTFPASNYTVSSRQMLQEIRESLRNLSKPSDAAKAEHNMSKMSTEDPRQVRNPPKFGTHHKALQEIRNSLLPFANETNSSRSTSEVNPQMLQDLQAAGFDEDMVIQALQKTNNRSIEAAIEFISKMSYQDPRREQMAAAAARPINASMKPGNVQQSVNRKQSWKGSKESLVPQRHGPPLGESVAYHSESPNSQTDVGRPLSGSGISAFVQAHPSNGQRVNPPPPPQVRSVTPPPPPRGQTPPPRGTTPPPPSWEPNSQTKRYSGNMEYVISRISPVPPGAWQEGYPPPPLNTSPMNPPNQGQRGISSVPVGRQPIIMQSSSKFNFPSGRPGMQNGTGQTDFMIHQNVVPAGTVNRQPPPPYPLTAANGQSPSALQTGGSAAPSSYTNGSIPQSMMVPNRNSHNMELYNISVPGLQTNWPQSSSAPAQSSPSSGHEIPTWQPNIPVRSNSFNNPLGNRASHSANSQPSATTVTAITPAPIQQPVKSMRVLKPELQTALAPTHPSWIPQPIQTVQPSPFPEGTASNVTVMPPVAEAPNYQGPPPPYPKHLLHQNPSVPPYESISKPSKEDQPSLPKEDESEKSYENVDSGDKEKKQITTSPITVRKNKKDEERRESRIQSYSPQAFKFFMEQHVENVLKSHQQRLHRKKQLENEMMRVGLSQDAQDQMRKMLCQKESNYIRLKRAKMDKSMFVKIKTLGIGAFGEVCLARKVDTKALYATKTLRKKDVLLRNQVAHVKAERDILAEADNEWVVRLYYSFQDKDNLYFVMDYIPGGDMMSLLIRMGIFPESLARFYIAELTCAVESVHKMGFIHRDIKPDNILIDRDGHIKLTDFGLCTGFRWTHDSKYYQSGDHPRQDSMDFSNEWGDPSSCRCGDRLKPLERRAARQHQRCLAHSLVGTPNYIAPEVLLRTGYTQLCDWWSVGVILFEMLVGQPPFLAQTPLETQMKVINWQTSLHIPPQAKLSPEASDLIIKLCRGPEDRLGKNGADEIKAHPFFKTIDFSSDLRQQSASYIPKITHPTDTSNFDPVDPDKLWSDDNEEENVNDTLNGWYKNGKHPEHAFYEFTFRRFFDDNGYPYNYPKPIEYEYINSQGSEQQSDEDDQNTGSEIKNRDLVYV
As to the kind of experiment: RBC HotSpot kinase assay (33P-ATP, P81 filter-binding), LATS1. The note with it: Table 28, biochemical kinase assay; read-out: LATS1 IC50. The method in brief: (§1)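 Substrate in fresh buffer receives cofactors, then kinase, then compound in DMSO for a 20 min room-temperature preincubation. Reactions start with 33P-ATP and run 2 h; phosphorylation is read by P81 filter binding, and IC50 comes from a 10-point curve.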

Experiment [2] deals with T2, LATS2 (Homo sapiens, UniProt Q9NRM7).
T2 sequence (Q9NRM7 1-1088): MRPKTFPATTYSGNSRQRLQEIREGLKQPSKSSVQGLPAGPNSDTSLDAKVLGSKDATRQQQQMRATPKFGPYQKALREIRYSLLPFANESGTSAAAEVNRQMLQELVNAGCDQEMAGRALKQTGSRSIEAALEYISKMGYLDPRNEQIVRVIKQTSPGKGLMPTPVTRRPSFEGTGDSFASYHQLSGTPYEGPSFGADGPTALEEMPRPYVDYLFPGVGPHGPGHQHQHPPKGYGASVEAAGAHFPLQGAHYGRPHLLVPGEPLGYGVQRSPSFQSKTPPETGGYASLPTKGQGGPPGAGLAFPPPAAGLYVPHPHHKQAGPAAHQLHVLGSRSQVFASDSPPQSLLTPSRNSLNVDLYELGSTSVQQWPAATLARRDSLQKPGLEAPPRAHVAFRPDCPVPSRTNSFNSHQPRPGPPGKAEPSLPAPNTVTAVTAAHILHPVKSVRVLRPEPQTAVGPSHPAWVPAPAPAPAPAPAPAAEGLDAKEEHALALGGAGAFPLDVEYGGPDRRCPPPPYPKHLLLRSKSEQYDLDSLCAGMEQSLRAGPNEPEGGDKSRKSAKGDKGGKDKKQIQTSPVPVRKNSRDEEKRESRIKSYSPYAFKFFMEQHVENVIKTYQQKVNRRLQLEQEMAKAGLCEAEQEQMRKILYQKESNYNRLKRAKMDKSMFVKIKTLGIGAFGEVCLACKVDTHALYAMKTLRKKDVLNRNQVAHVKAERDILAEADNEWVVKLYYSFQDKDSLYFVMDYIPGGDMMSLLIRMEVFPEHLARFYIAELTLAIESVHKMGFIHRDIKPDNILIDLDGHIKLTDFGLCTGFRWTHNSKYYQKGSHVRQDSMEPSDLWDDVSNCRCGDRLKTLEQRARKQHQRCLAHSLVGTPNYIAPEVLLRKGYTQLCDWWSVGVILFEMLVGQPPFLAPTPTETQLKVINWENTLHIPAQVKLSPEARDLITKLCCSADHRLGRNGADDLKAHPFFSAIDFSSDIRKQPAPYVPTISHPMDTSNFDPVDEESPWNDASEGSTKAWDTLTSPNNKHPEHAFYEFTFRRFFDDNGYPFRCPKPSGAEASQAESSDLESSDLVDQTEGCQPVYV
Put plainly: RBC HotSpot kinase assay (33P-ATP, P81 filter-binding), LATS2. The note with it: Table 28, biochemical kinase assay; read-out: LATS2 IC50. Put shortly: as §1

In experiment [3] the target is AKT (Homo sapiens, UniProt P31749). As to the kind of experiment: RBC HotSpot kinase assay (33P-ATP, P81 filter-binding), AKT. The note with it: Table 28, biochemical kinase assay; read-out: AKT IC50. Put shortly: as §1
Sequence of AKT (P31749 whole entry): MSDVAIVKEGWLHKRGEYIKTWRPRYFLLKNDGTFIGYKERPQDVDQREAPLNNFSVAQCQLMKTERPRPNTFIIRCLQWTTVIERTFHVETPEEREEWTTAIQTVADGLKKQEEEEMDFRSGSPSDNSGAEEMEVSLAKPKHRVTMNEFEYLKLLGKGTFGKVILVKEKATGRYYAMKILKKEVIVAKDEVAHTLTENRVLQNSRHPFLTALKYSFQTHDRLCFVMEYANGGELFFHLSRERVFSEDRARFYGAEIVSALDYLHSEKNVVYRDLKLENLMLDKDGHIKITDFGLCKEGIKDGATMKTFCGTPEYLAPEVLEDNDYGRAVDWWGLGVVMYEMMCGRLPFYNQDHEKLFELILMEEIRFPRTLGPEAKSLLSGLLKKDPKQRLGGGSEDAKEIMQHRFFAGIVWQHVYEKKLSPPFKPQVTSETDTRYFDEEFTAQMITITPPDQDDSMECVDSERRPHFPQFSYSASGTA

Molecules are shown by their SMILES.

In general, IC50 refers to the concentration that inhibits the measured activity by half. In the case of `C[C@@H]1CN(Cc2ccccc2)C[C@H](C)[C@@]1(O)c1c(F)cc(-c2ccnc3[nH]cc(F)c23)cc1F` [Compound 93, (3S,4s,5R)-1-benzyl-4-(2,6-difluoro-4-(3-fluoro-1H-pyrrolo[2,3-b]pyridin-4-yl)phenyl)-3,5-dimethylpiperidin-4-ol], the IC50 in experiment [1] came to 10.6 nM; in experiment [2] it was 7.7 nM; in experiment [3], 2090 nM.

For the molecule `CC(=O)N1C[C@@H](C)[C@](O)(c2c(F)cc(-c3ccnc4[nH]cc(F)c34)cc2F)[C@@H](C)C1` [Compound 94, 1-((3S,4s,5R)-4-(2,6-difluoro-4-(3-fluoro-1H-pyrrolo[2,3-b]pyridin-4-yl)phenyl)-4-hydroxy-3,5-dimethylpiperidin-1-yl)ethan-1-one], the IC50 in experiment [1] was 17.8 nM; in experiment [2] it was 29.4 nM; in experiment [3], 4750 nM.

With `CC(=O)N1C[C@@H](C)[C@](O)(c2c(C)cc(-c3ccnc4[nH]cc(F)c34)cc2F)[C@@H](C)C1` [Compound 95, 1-((3S,5R)-4-(2-fluoro-4-(3-fluoro-1H-pyrrolo[2,3-b]pyridin-4-yl)-6-methylphenyl)-4-hydroxy-3,5-dimethylpiperidin-1-yl)ethan-1-one], the IC50 was 6.9 nM in experiment [1], 4.8 nM in experiment [2] and 2620 nM in experiment [3].

With `OC1(c2ccc(-c3ccnc4[nH]cc(F)c34)cc2Cl)CCN2CCCC2C1` (stereo not drawn) [Compound 96, 7-(2-chloro-4-(3-fluoro-1H-pyrrolo[2,3-b]pyridin-4-yl)phenyl)octahydroindolizin-7-ol], the 50% inhibitory concentration (IC50) worked out at 17 nM in experiment [1], 17.9 nM in experiment [2] and 771 nM in experiment [3].

Regarding `OC1(c2ccc(-c3ccnc4[nH]cc(F)c34)cc2Cl)CCNCC1` [Compound 97, 4-(2-chloro-4-(3-fluoro-1H-pyrrolo[2,3-b]pyridin-4-yl)phenyl)piperidin-4-ol], the figures for the IC50 in experiment [1], in experiment [2] and in experiment [3] were 11.4 nM, 42.8 nM and 712 nM, respectively.

Take `CC1CC(O)(c2ccc(-c3ccnc4[nH]cc(F)c34)cc2Cl)CCN1` (stereo not drawn) [Compound 98, 4-(2-chloro-4-(3-fluoro-1H-pyrrolo[2,3-b]pyridin-4-yl)phenyl)-2-methylpiperidin-4-ol]: the IC50 is 24 nM in experiment [1], 37 nM in experiment [2] and 383 nM in experiment [3].

Take `CC1CNCCC1(O)c1ccc(-c2ccnc3[nH]cc(F)c23)cc1Cl` (stereo not drawn) [Compound 99, 4-(2-chloro-4-(3-fluoro-1H-pyrrolo[2,3-b]pyridin-4-yl)phenyl)-3-methylpiperidin-4-ol]: the IC50 is 10.6 nM in experiment [1], 6.2 nM in experiment [2] and 219 nM in experiment [3].

Consider `CC1CC(O)(c2ccc(-c3ccnc4[nH]cc(F)c34)cc2Cl)CC(C)N1` (stereo not drawn) [Compound 100, 4-(2-chloro-4-(3-fluoro-1H-pyrrolo[2,3-b]pyridin-4-yl)phenyl)-2,6-dimethylpiperidin-4-ol], for which the half-maximal inhibitory concentration (IC50) in experiment [1] was found to be 230 nM; in experiment [2], 195 nM; in experiment [3] it was 1900 nM.

Turning to `COC(=O)c1c[nH]c2nccc(-c3ccc(C4(O)CCNCC4)c(Cl)c3)c12` [Compound 101, methyl 4-(3-chloro-4-(4-hydroxypiperidin-4-yl)phenyl)-1H-pyrrolo[2,3-b]pyridine-3-carboxylate], the IC50 was found to be 7.1 nM in experiment [1], 70.8 nM in experiment [2] and 1950 nM in experiment [3].

For the molecule `OC1(c2ccc(-c3ccnc4[nH]cc(F)c34)cc2Cl)C2CNCC1C2` (stereo not drawn) [Compound 102, 6-(2-chloro-4-(3-fluoro-1H-pyrrolo[2,3-b]pyridin-4-yl)phenyl)-3-azabicyclo[3.1.1]heptan-6-ol], the figures for the IC50 in experiment [1], in experiment [2] and in experiment [3] were 82 nM, 224 nM and 4870 nM, respectively.

Consider `O[C@]1(c2ccc(-c3ccnc4[nH]cc(F)c34)cc2Cl)[C@@H]2CC[C@H]1CNC2` [Compound 103, (1R,5S,8s)-8-(2-chloro-4-(3-fluoro-1H-pyrrolo[2,3-b]pyridin-4-yl)phenyl)-3-azabicyclo[3.2.1]octan-8-ol], for which the values for the IC50 in experiment [1], in experiment [2] and in experiment [3] were 43.9 nM, 162 nM and 1720 nM, respectively.
